Here are results for 18 compounds from US8399419B2, “Antibacterial aminoglycoside analogs” (Achaogen, Inc., priority 2008, dated 2013).

Test [1] deals with E. coli ATCC 25922. In words: MIC assay (CLSI broth microdilution), AECO001. The class given is cell-based. Conditions: AECO001 is ATCC25922 (E. coli), Mueller Hinton Broth, 35 C, 20 hours; for MIC: Escherichia coli. The method, then: (§1) Minimum inhibitory concentrations (MIC) were determined by reference Clinical and Laboratory Standards Institute (CLSI) broth microdilution methods per M7-A7 [2006]. Quality control ranges utilizing E. coli ATCC 25922, P. aeruginosa ATCC 27853 and S. aureus ATCC 29213, and interpretive criteria for comparator agents were as published in CLSI M100-S17 [2007]. Briefly, serial two-fold dilutions of the test compounds were prepared at 2× concentration in Mueller Hinton Broth. The compound dilutions were mixed in 96-well assay plates in a 1:1 ratio with bacterial inoculum. The inoculum was prepared by suspension of a colony from an agar plate that was prepared the previous day. Bacteria were suspended in sterile saline and added to each assay plate to obtain a final concentration of 5×10^5 CFU/mL. The plates were incubated at 35 C for 20 hours in ambient air.
(In general: Dilution methods test growth across graded concentrations, often in twofold steps.)

Test [2] concerns P. aeruginosa ATCC 27853. The test is described as follows: MIC assay (CLSI broth microdilution), APAE001. The format is cell-based. The conditions noted are these: APAE001 is ATCC27853 (P. aeruginosa), Mueller Hinton Broth, 35 C, 20 hours; for MIC: Pseudomonas aeruginosa. The method, then: as §1

In brackets after ≈: the same amount, converted by molar mass.

`NC[C@@H]1CC[C@@H](N)[C@@H](O[C@H]2[C@H](O[C@@H]3O[C@H](CO)[C@@H](O[C@H]4O[C@@H](CN)CC[C@H]4N)[C@H]3O)[C@@H](O)[C@H](NCCC(N)=O)C[C@@H]2N)O1` [Example 11/Compound 3, 3′,4′,3′″,4′″-tetra-deoxy-1-(3-propionamide)-neomycin]: the MIC in test [1] and in test [2] was 1 to 16 µg/mL (≈ 1.61 to 25.7 µM) throughout.
With `NC[C@@H]1CC[C@@H](N)[C@@H](O[C@H]2[C@H](O[C@@H]3O[C@H](CO)[C@@H](O[C@H]4O[C@@H](CN)CC[C@H]4N)[C@H]3O)[C@@H](O)[C@H](NC(=O)[C@H](O)[C@H](O)CN)C[C@@H]2N)O1` [Example 29/Compound 6, 3′,4′,3′″,4′″-tetra-deoxy-1-(4-amino-3,2-(R,R)-bis-hydroxy-butyryl)-neomycin], the MIC – broadly, the smallest concentration in the dilution series that meets the test's criterion for growth inhibition – in test [1] is 1 to 16 µg/mL (≈ 1.5 to 24 µM); in test [2], no more than 1 µg/mL.
For `NC[C@@H]1CC[C@@H](N)[C@@H](O[C@H]2[C@H](O[C@@H]3O[C@H](CO)[C@@H](O[C@H]4O[C@@H](CN)CC[C@H]4N)[C@H]3O)[C@@H](O)[C@H](NCC(O)CO)C[C@@H]2N)O1` (some centres unmarked) [Example 18/Compound 3, 3′,4′,3′″,4′″-tetra-deoxy-1-(2,3-bis-hydroxy-propyl)-neomycin], in that order: 1 to 16 µg/mL (≈ 1.6 to 25.6 µM) and no more than 1 µg/mL.
`NCCS(=O)(=O)N[C@@H]1C[C@H](N)[C@@H](O[C@H]2O[C@H](CN)CC[C@H]2N)[C@H](O[C@@H]2O[C@H](CO)[C@@H](O[C@H]3O[C@@H](CN)CC[C@H]3N)[C@H]2O)[C@H]1O` [Example 23/Compound 4, 3′,4′,3′″,4′″-tetra-deoxy-1-(2-amino-ethylsulfonamide)-neomycin]: in test [1], the MIC lay within 1 to 16 µg/mL (≈ 1.52 to 24.3 µM).
With `NCC[C@H](O)C(=O)N[C@@H]1C[C@H](N)[C@@H](O[C@H]2O[C@H](CN)C=C[C@H]2N)[C@H](O[C@@H]2O[C@H](CO)[C@@H](O[C@H]3O[C@@H](CN)C=C[C@H]3N)[C@H]2O)[C@H]1O` [Example 5/Compound 7], the values for the minimum inhibitory concentration (MIC) in test [1] and in test [2] were 1 to 16 µg/mL (≈ 1.54 to 24.7 µM) and no more than 1 µg/mL, respectively.
As for `NC[C@@H]1CC[C@@H](N)[C@@H](O[C@H]2[C@H](O[C@@H]3O[C@H](CO)[C@@H](O[C@H]4O[C@@H](CN)CC[C@H]4N)[C@H]3O)[C@@H](O)[C@H](NCc3cccc(O)c3)C[C@@H]2N)O1` [Example 16/Compound 3, 3′,4′,3′″,4′″-tetra-deoxy-1-(3-hydroxybenzyl)-neomycin], the minimum inhibitory concentration (MIC) in test [1] and in test [2] was 1 to 16 µg/mL (≈ 1.52 to 24.4 µM) throughout.
Turning to `NC[C@@H]1CC[C@@H](N)[C@@H](O[C@H]2[C@H](O[C@@H]3O[C@H](CO)[C@@H](O[C@H]4O[C@@H](CN)CC[C@H]4N)[C@H]3O)[C@@H](O)[C@H](NC(=O)[C@H](O)[C@@H](F)CN)C[C@@H]2N)O1` [Example 25/Compound 8, 3′,4′,3′″,4′″-tetra-deoxy-1-(4-amino-3(S)-fluoro-2(S)-hydroxy-butyryl)-neomycin], the MIC in test [1] and in test [2] was no more than 1 µg/mL throughout.
Consider `NC[C@@H]1CC[C@@H](N)[C@@H](O[C@H]2[C@H](O[C@@H]3O[C@H](CO)[C@@H](O[C@H]4O[C@@H](CN)CC[C@H]4N)[C@H]3O)[C@@H](O)[C@H](NCCO)C[C@@H]2N)O1` [Example 15/Compound 3, 3′,4′,3′″,4′″-tetra-deoxy-1-(2-hydroxyethyl)-neomycin], for which the minimum inhibitory concentration (MIC) in test [1] and in test [2] was 1 to 16 µg/mL (≈ 1.68 to 26.9 µM) in each case.
In the case of `NCC[C@H](O)C(=O)N[C@@H]1C[C@H](N)[C@@H](O[C@H]2O[C@H](CN)CC[C@H]2N)[C@H](O[C@@H]2O[C@H](CO)[C@@H](O[C@H]3O[C@@H](CN)CC[C@H]3N)[C@H]2O)[C@H]1O` [Example 4/Compound 5, 3′,4′,3′″,4′″-tetra-dehydro-1-(4-amino-2(S)-hydroxy-butyryl)-neomycin], the MIC is 1 to 16 µg/mL (≈ 1.53 to 24.5 µM) in test [1] and no more than 1 µg/mL in test [2].
On the same counts, the results for `NC[C@@H]1CC[C@@H](N)[C@@H](O[C@H]2[C@H](O[C@@H]3O[C@H](CO)[C@@H](O[C@H]4O[C@@H](CN)CC[C@H]4N)[C@H]3O)[C@@H](O)[C@H](NC(=O)[C@@H](O)CN)C[C@@H]2N)O1` [Example 13/Compound 4, 3′,4′,3′″,4′″-tetra-deoxy-1-(2(S)-hydroxy-3-amino-propionyl)-neomycin] are 1 to 16 µg/mL (≈ 1.57 to 25.1 µM) and no more than 1 µg/mL.
For `NCC[C@H](O)C(=O)N[C@@H]1C[C@H](N)[C@@H](O[C@H]2O[C@H](CO)CC[C@H]2N)[C@H](O[C@@H]2O[C@H](CO)[C@@H](O[C@H]3O[C@@H](CN)CC[C@H]3N)[C@H]2O)[C@H]1O` [Example 1/Compound 16, 3′,4′,3′″,4′″-tetradeoxy-1-(4-amino-2(S)-hydroxy-butyryl)-paromomycin], in that order: 1 to 16 µg/mL (≈ 1.53 to 24.5 µM) and greater than 16 µg/mL.
On the same counts, the results for `N#CCCC(=O)N[C@@H]1C[C@H](N)[C@@H](O[C@H]2O[C@H](CN)CC[C@H]2N)[C@H](O[C@@H]2O[C@H](CO)[C@@H](O[C@H]3O[C@@H](CN)CC[C@H]3N)[C@H]2O)[C@H]1O` [Example 14/Compound 3, 3′,4′,3′″,4′″-tetra-deoxy-1-(3-cyano-propionyl)-neomycin] are 1 to 16 µg/mL (≈ 1.58 to 25.3 µM) and greater than 16 µg/mL.
With `N=C(N)NCC[C@H](O)C(=O)N[C@@H]1C[C@H](N)[C@@H](O[C@H]2O[C@H](CN)CC[C@H]2N)[C@H](O[C@@H]2O[C@H](CO)[C@@H](O[C@H]3O[C@@H](CN)CC[C@H]3N)[C@H]2O)[C@H]1O` [Example 17/Compound 4, 3′,4′,3′″,4′″-tetra-deoxy-1-(2(S)-hydroxy-4-guanidino-butyryl)-neomycin], the minimum inhibitory concentration (MIC) was 1 to 16 µg/mL (≈ 1.44 to 23.1 µM) in test [1] and no more than 1 µg/mL in test [2].
`NCCCS(=O)(=O)N[C@@H]1C[C@H](N)[C@@H](O[C@H]2O[C@H](CN)CC[C@H]2N)[C@H](O[C@@H]2O[C@H](CO)[C@@H](O[C@H]3O[C@@H](CN)CC[C@H]3N)[C@H]2O)[C@H]1O` [Example 7/Compound 4]: the MIC in test [1] was 1 to 16 µg/mL (≈ 1.49 to 23.8 µM); in test [2], no more than 1 µg/mL.
With “3′,4′,3′″,4′″-tetra-deoxy-1-(3-amino-propionyl)-neomycin [Example 14/Compound 4]”, in test [1], the “MIC AECO001” value is given as “B (MIC's of greater than 1.0 μg/mL to 16.0 μg/mL = B)”. In test [2], the “MIC APAE001” value is listed as “B (MIC's of greater than 1.0 μg/mL to 16.0 μg/mL = B)”.
Regarding `NC[C@@H]1CC[C@@H](N)[C@@H](O[C@H]2[C@H](O[C@@H]3O[C@H](CO)[C@@H](O[C@H]4O[C@@H](CN)CC[C@H]4N)[C@H]3O)[C@@H](O)[C@H](NC(CO)CO)C[C@@H]2N)O1` [Example 21/Compound 3, 3′,4′,3′″,4′″-tetra-deoxy-1-(2-hydroxy-1-hydroxymethyl-ethyl)-neomycin], the MIC in test [1] and in test [2] was 1 to 16 µg/mL (≈ 1.6 to 25.6 µM) each time.
Take `NCC(=O)N[C@@H]1C[C@H](N)[C@@H](O[C@H]2O[C@H](CN)CC[C@H]2N)[C@H](O[C@@H]2O[C@H](CO)[C@@H](O[C@H]3O[C@@H](CN)CC[C@H]3N)[C@H]2O)[C@H]1O` [Example 19/Compound 3, 3′,4′,3′″,4′″-tetra-deoxy-1-(2-aminoacetyl)-neomycin]: the minimal inhibitory concentration (MIC) in test [1] and in test [2] was 1 to 16 µg/mL (≈ 1.65 to 26.3 µM) in each case.
As to `NC[C@@H]1CC[C@@H](N)[C@@H](O[C@H]2[C@H](O[C@@H]3O[C@H](CO)[C@@H](O[C@H]4O[C@@H](CN)CC[C@H]4N)[C@H]3O)[C@@H](O)[C@H](NC(=O)C3(O)CC(N)C3)C[C@@H]2N)O1` (some centres unmarked) [Example 9/Compound 4], the minimal inhibitory concentration (MIC) in test [1] and in test [2] was no more than 1 µg/mL throughout.
